Results published in ChEMBL document CHEMBL1135038, “Initial structure-activity relationship studies of a novel series of pyrrolo[1,2-a]pyrimid-7-ones as GnRH receptor antagonists” (Bioorg Med Chem Lett, 2002).

The molecules below were run against T1, Gonadotropin-releasing hormone receptor (Rattus norvegicus, UniProt P30969) (assay: Binding affinity against gonadotropin-releasing hormone receptor of rat).
T1 sequence (P30969 whole entry): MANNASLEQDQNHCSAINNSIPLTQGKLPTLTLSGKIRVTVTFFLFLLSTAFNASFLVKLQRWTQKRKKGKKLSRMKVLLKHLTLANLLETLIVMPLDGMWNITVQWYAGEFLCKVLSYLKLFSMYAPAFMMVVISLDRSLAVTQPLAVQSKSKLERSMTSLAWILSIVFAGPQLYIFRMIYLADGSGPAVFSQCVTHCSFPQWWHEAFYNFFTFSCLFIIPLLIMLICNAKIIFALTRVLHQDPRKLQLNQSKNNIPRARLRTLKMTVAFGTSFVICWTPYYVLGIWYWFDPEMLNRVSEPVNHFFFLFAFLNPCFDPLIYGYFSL
In the case of `CCC(CC)OC(=O)c1cn(Cc2ccccc2F)c2c(C#N)c(-c3ccc(OCC(C)C)cc3)c(CN(C)CCc3ccccn3)n2c1=O`, the Ki is reported as 7300 nM. With `Cc1cc(C)cc(-c2[nH]c3ccccc3c2CCNCCCCc2ccc(NS(C)(=O)=O)cc2)c1` the IC50 was 170 nM. Molecule `Cc1cc(-c2c(O)nc3ccc(C(=O)Nc4ccncn4)cc3c2OCC[C@@H]2CCN2)cc(C)c1C` has an IC50 of 4 nM. With `CCC(CC)OC(=O)c1cn(Cc2ccccc2F)c2c(C#N)c(-c3ccc(OC)cc3)c(CN(C)CCc3ccccn3)n2c1=O` the Ki was 7700 nM. `CN(CCc1ccccn1)Cc1c(-c2ccc(OC3CCCC3)cc2)c(C#N)c2n(Cc3ccccc3F)cc(C(=O)OC3CCCC3)c(=O)n12` was tested, and the Ki was 8900 nM. Work on `CCC(CC)OC(=O)c1cn(Cc2ccccc2F)c2c(C#N)c(-c3ccc(OC4CCCC4)cc3)c(CN(C)CCc3ccccn3)n2c1=O` yielded a Ki of 7600 nM.

These molecules were tested against T2, Gonadotropin-releasing hormone receptor (Homo sapiens, UniProt P30968) (assay: Binding affinity against human GnRH receptor expressed in HEK293 cells using des-Gly10[125I]Tyr5, D-Leu, NMeLeu, Pro-NEt GnRH as radioligand.).
T2 sequence (P30968 whole entry): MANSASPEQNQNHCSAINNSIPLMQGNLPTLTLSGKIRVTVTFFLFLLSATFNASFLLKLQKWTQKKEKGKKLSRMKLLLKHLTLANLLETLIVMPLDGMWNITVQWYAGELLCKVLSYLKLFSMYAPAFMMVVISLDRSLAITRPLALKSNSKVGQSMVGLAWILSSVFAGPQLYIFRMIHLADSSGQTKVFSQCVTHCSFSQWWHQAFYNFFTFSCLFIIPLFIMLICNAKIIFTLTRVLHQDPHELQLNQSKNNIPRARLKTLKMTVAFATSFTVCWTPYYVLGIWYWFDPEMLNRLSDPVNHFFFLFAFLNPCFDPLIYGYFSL
Format: cell-based
Molecule `CCOC(=O)c1cn(Cc2ccccc2)c2c(C#N)c(-c3ccc(OC)cc3)c(CN(C)CCc3ccccn3)n2c1=O` has a Ki of 2600 nM. `CCOC(=O)c1cn(Cc2ccc(F)cc2F)c2c(C#N)c(-c3ccc(OCC(C)C)cc3)c(CN(C)CCc3ccncc3)n2c1=O` gave a Ki of over 50000 nM. `COc1ccc(-c2c(C#N)c3n(Cc4ccccc4F)cc(C(=O)OC(C4CC4)C4CC4)c(=O)n3c2CN(C)CCc2ccccn2)cc1` gave a Ki of 2500 nM. Molecule `COc1ccc(-c2c(C#N)c3n(Cc4ccccc4F)cc(C(=O)OC4CCOC4)c(=O)n3c2CN(C)CCc2ccccn2)cc1` (configuration not stated) has a Ki of 2100 nM. `CCOC(=O)c1cn(Cc2ccccc2OC)c2c(C#N)c(-c3ccc(OCC(C)C)cc3)c(CN(C)CCc3ccccn3)n2c1=O` showed a Ki of 2200 nM. In the case of `CCOC(=O)c1cn(Cc2cccc(F)c2F)c2c(C#N)c(-c3ccc(OC)cc3)c(CN(C)CCc3ccccn3)n2c1=O`, the Ki is reported as 2400 nM. `CCC(CC)OC(=O)c1cn(Cc2ccccc2F)c2c(C#N)c(-c3ccc(OCC(C)C)cc3)c(CN(C)CCc3ccccn3)n2c1=O` showed a Ki of 25 nM. `CCOC(=O)c1cn(Cc2ccc(F)cc2F)c2c(C#N)c(-c3ccc(OCC(C)C)cc3)c(CN(C)CCc3ccccn3)n2c1=O` showed a Ki of 400 nM. In the case of `CCOC(=O)c1cn(Cc2c(F)cccc2F)c2c(C#N)c(-c3ccc(OC)cc3)c(CN(C)CCc3ccccn3)n2c1=O`, the Ki is reported as 2000 nM. `CCOC(=O)c1cn(Cc2ccc(F)cc2F)c2c(C#N)c(-c3ccc(OCC(C)C)cc3)c(CN(C)CCc3ccccc3)n2c1=O` gave a Ki of over 50000 nM. `CCOC(=O)c1cn(Cc2c(F)cccc2F)c2c(C#N)c(-c3ccc(OCC(C)C)cc3)c(CN(C)CCc3ccccn3)n2c1=O` gave a Ki of 800 nM. `CCOC(=O)c1cn(Cc2ccc(F)cc2F)c2c(C#N)c(-c3ccc(OCC(C)C)cc3)c(CN(C)CCc3cccnc3)n2c1=O` gave a Ki of 28000 nM. With `CCC(CC)OC(=O)c1cn(Cc2ccccc2F)c2c(C#N)c(-c3ccc(OC)cc3)c(CN(C)CCc3ccccn3)n2c1=O` the Ki was 180 nM. `CCOC(=O)c1cn(Cc2ccccc2C#N)c2c(C#N)c(-c3ccc(OC)cc3)c(CN(C)CCc3ccccn3)n2c1=O` showed a Ki of 4900 nM. With `CCOC(=O)c1cn(Cc2ccc(F)cc2F)c2c(C#N)c(-c3ccc(OC)cc3)c(CN(C)CCc3ccccn3)n2c1=O` the Ki was 3700 nM. `CCOC(=O)c1cn(CC2CC2)c2c(C#N)c(-c3ccc(OC)cc3)c(CN(C)CCc3ccccn3)n2c1=O` gave a Ki of over 50000 nM. `CCOC(=O)c1cn(Cc2ccccc2Cl)c2c(C#N)c(-c3ccc(OC)cc3)c(CN(C)CCc3ccccn3)n2c1=O` was tested, and the Ki was 8500 nM. `COc1ccc(-c2c(C#N)c3n(Cc4ccccc4F)cc(C(=O)OC(C)C)c(=O)n3c2CN(C)CCc2ccccn2)cc1` gave a Ki of 400 nM. `CN(CCc1ccccn1)Cc1c(-c2ccc(OC3CCCC3)cc2)c(C#N)c2n(Cc3ccccc3F)cc(C(=O)OC3CCCC3)c(=O)n12` was tested, and the Ki was 33 nM. Work on `CCOC(=O)c1cn(Cc2cc(F)ccc2F)c2c(C#N)c(-c3ccc(OCC(C)C)cc3)c(CN(C)CCc3ccccn3)n2c1=O` yielded a Ki of 1200 nM. Work on `CCOC(=O)c1cn(Cc2cc(F)ccc2F)c2c(C#N)c(-c3ccc(OC)cc3)c(CN(C)CCc3ccccn3)n2c1=O` yielded a Ki of 6000 nM. With `CCOC(=O)c1cn(Cc2ccccc2F)c2c(C#N)c(-c3ccc(OC)cc3)c(CN(C)CCc3ccccn3)n2c1=O` the Ki was 500 nM. Molecule `CCOC(=O)c1cn(Cc2ccccc2OC)c2c(C#N)c(-c3ccc(OC)cc3)c(CN(C)CCc3ccccn3)n2c1=O` has a Ki of 6600 nM. `CCOC(=O)c1cn(Cc2ccccc2)c2c(C#N)c(-c3ccc(OC)cc3)c(CN(C)C)n2c1=O` gave a Ki of over 50000 nM. For `COc1ccc(-c2c(C#N)c3n(Cc4ccccc4F)cc(C(=O)OC4CCCC4)c(=O)n3c2CN(C)CCc2ccccn2)cc1`, the Ki was 260 nM. Work on `CCOC(=O)c1cn(Cc2ccccc2F)c2c(C#N)c(-c3ccc(OC)cc3)c(CN(C)Cc3ccccc3)n2c1=O` yielded a Ki of 1800 nM. `CCC(CC)OC(=O)c1cn(Cc2ccccc2F)c2c(C#N)c(-c3ccc(OC4CCCC4)cc3)c(CN(C)CCc3ccccn3)n2c1=O` was tested, and the Ki was 31 nM. Molecule `CCOC(=O)c1cn(Cc2ccccc2F)c2c(C#N)c(-c3ccc(OCC(C)C)cc3)c(CN(C)CCc3ccccn3)n2c1=O` has a Ki of 100 nM. In the case of `CCOC(=O)c1cn(Cc2ccccc2)c2c(C#N)c(-c3ccc(OC)cc3)c(CN(C)Cc3ccccc3)n2c1=O`, the Ki is reported as 42000 nM.

These molecules were tested against T2, Gonadotropin-releasing hormone receptor (assay: Inhibitory activity against human GnRH receptor using des-Gly10[125I]Tyr5, D-Leu, NMeLeu, Pro-NEt]GnRH radioligand).
With `Cc1cc(C)cc(-c2[nH]c3ccccc3c2CCNCCCCc2ccc(NS(C)(=O)=O)cc2)c1` the IC50 was 7 nM. In the case of `Cc1cc(-c2c(O)nc3ccc(C(=O)Nc4ccncn4)cc3c2OCC[C@@H]2CCN2)cc(C)c1C`, the IC50 is reported as 0.4 nM.
